Test results from ChEMBL document CHEMBL1201862, “PubChem BioAssay data set” (2004).
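Tested at 5 concentrations; 48 h exposure; 96-well plates; endpoints linearly interpolated, else capped at highest concentration. The concentration for 50% growth inhibition is given as GI50.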 Activity calls are given as the source filed them. Rule as the data show it: active = GI50 up to about 1.1 µM and inactive = higher.

What was measured:
Experiment in all cases: inhibition of tumour cell growth, NCI panel, 48 h
SK-MEL-2 = tested on: SK-MEL-2
T47D = tested on: T47D
HOP-62 = tested on: HOP-62
SF-268 = tested on: SF-268
MDA-MB-231 = tested on: MDA-MB-231
HCT-15 = tested on: HCT-15
SF-539 = tested on: SF-539
NCI/ADR-RES = tested on: NCI/ADR-RES
OVCAR-4 = tested on: OVCAR-4
COLO 205 = tested on: COLO 205
M14 = tested on: M14
MDA-MB-435 = tested on: MDA-MB-435
A498 = tested on: A498
NCI-H226 = tested on: NCI-H226
CAKI-1 = tested on: CAKI-1
A549 = tested on: A549
NCI-H522 = tested on: NCI-H522
IGROV-1 = tested on: IGROV-1
SK-MEL-5 = tested on: SK-MEL-5
SR = tested on: SR

Compound | GI50 (SK-MEL-2) | GI50 (T47D) | GI50 (HOP-62) | GI50 (SF-268) | GI50 (MDA-MB-231) | GI50 (HCT-15) [µM] | GI50 (SF-539) | GI50 (NCI/ADR-RES) | GI50 (OVCAR-4) | GI50 (COLO 205) | GI50 (M14) | GI50 (MDA-MB-435) | GI50 (A498) | GI50 (NCI-H226) | GI50 (CAKI-1) | GI50 (A549) | GI50 (NCI-H522) | GI50 (IGROV-1) | GI50 (SK-MEL-5) | GI50 (SR)
Cc1cccc(N/C(Sc2ccccc2)=C(/C(Cl)=C(Cl)Cl)[N+](=O)[O-])c1 | 28.1 µM (inactive) | 18 µM (inactive) | 20.3 µM (inactive) | 17.8 µM (inactive) | 20.4 µM (inactive) | 15.3 | 16.4 µM (inactive) | 15.8 µM (inactive) | 17.5 µM (inactive) | 15.6 µM (inactive) | 18.8 µM (inactive) | 17.7 µM (inactive) | 16.8 µM (inactive) | 16.6 µM (inactive) | 19.9 µM (inactive) | 20 µM (inactive) |  |  |  | 
CCOc1ccc(NC(=O)C(=O)C2C(=O)Nc3ccccc3[S+]2[O-])cc1 (centres undefined) | > 100 µM (inactive) | > 100 µM (inactive) | > 100 µM (inactive) | > 100 µM (inactive) | > 100 µM (inactive) | > 100 | > 100 µM (inactive) | > 100 µM (inactive) | 89.7 µM (inactive) |  | > 100 µM (inactive) | > 100 µM (inactive) | > 100 µM (inactive) | > 100 µM (inactive) | > 100 µM (inactive) | > 100 µM (inactive) | > 100 µM (inactive) | 55.6 µM (inactive) | > 100 µM (inactive) | 
FC1CCN(C2(c3cccs3)CCCCC2)CC1 | > 100 µM (inactive) | > 100 µM (inactive) | > 100 µM (inactive) |  | > 100 µM (inactive) | > 100 |  | > 100 µM (inactive) | > 100 µM (inactive) | > 100 µM (inactive) | 77.1 µM (inactive) | > 100 µM (inactive) | > 100 µM (inactive) | > 100 µM (inactive) | > 100 µM (inactive) | > 100 µM (inactive) | > 100 µM (inactive) | > 100 µM (inactive) | > 100 µM (inactive) | 
Nc1ccc(S(=O)(=O)Nc2nc3ccccc3nc2Nc2ccc(S(N)(=O)=O)cc2)cc1 | 19.1 µM (inactive) | 40.7 µM (inactive) | 29.2 µM (inactive) | 17.5 µM (inactive) | 53.8 µM (inactive) | 37.7 | 31.8 µM (inactive) | 45.9 µM (inactive) | 2.45 µM (inactive) | 52.6 µM (inactive) | 36.3 µM (inactive) | 49.3 µM (inactive) |  | 56.4 µM (inactive) | 68.7 µM (inactive) | 47.1 µM (inactive) | 23.3 µM (inactive) | 21.8 µM (inactive) | 49.8 µM (inactive) | 37 µM (inactive)
NC1CC(=O)c2cscc21 (centres undefined) | > 100 µM (inactive) | 19.6 µM (inactive) | > 100 µM (inactive) |  | > 100 µM (inactive) | 25.4 | 37 µM (inactive) | > 100 µM (inactive) | > 100 µM (inactive) | 20.6 µM (inactive) | 31.1 µM (inactive) | 24.1 µM (inactive) |  |  | 15.9 µM (inactive) | 14.1 µM (inactive) |  | > 100 µM (inactive) | > 100 µM (inactive) | 
Cc1ccc2c(=O)c(C(=O)Nn3c(C)csc3=S)c[nH]c2n1 | > 100 µM (inactive) | > 100 µM (inactive) | > 100 µM (inactive) | > 100 µM (inactive) | > 100 µM (inactive) | > 100 |  | > 100 µM (inactive) | > 100 µM (inactive) | > 100 µM (inactive) | > 100 µM (inactive) | > 100 µM (inactive) | > 100 µM (inactive) | 83 µM (inactive) | 69 µM (inactive) | > 100 µM (inactive) | > 100 µM (inactive) | > 100 µM (inactive) | > 100 µM (inactive) | 
O=C(CSCC(=O)N/N=C/c1ccccc1)N/N=C\c1ccccc1 | > 100 µM (inactive) | 77.6 µM (inactive) | > 100 µM (inactive) | > 100 µM (inactive) | > 100 µM (inactive) | > 100 | 81.3 µM (inactive) | > 100 µM (inactive) | > 100 µM (inactive) | > 100 µM (inactive) | > 100 µM (inactive) | > 100 µM (inactive) |  | > 100 µM (inactive) | > 100 µM (inactive) | > 100 µM (inactive) | > 100 µM (inactive) | > 100 µM (inactive) | > 100 µM (inactive) | 
Nc1nc(Cl)c(N)c(NCC2(CO)CCC(OCc3ccccc3)C2)n1 (centres undefined) | 84.1 µM (inactive) | 0.372 µM (active) | > 100 µM (inactive) | > 100 µM (inactive) | > 100 µM (inactive) | 61.9 | > 100 µM (inactive) | 13.5 µM (inactive) | 43.4 µM (inactive) | > 100 µM (inactive) |  | 95.9 µM (inactive) | 0.982 µM (active) | 0.433 µM (active) | > 100 µM (inactive) | > 100 µM (inactive) | > 100 µM (inactive) | > 100 µM (inactive) | 0.305 µM (active) | 
C[C@@H](CO)C1=C(O)C(=O)c2c(ccc3c2CCCC3(C)C)C1=O | 23.2 µM (inactive) | 50.6 µM (inactive) | 29.2 µM (inactive) | 32.2 µM (inactive) | 61.4 µM (inactive) | 29 |  | 38.8 µM (inactive) | 46.7 µM (inactive) | 38.3 µM (inactive) | 17.7 µM (inactive) | 26.8 µM (inactive) | 33 µM (inactive) | 28.2 µM (inactive) | 44.9 µM (inactive) | 32.1 µM (inactive) | 15.5 µM (inactive) | 37.2 µM (inactive) | 30.5 µM (inactive) | 
Cc1[nH]c2c(c1Cc1ccccc1)C1=NC=C(O)NN1C=N2 | > 100 µM (inactive) | 14.4 µM (inactive) | > 100 µM (inactive) | 94.2 µM (inactive) | > 100 µM (inactive) | 45.3 | 86.9 µM (inactive) | > 100 µM (inactive) | > 100 µM (inactive) | 22 µM (inactive) | > 100 µM (inactive) | > 100 µM (inactive) | > 100 µM (inactive) | > 100 µM (inactive) | > 100 µM (inactive) | > 100 µM (inactive) | 43.7 µM (inactive) | 10 µM (inactive) | 70 µM (inactive) | 
CC1(C)CC(=O)C2(CC(CSc3ccccc3)C(CS(=O)(=O)c3ccccc3)C2)C(=O)C1 (centres undefined) | > 100 µM (inactive) | 45.5 µM (inactive) | > 100 µM (inactive) | > 100 µM (inactive) | > 100 µM (inactive) | > 100 | > 100 µM (inactive) | > 100 µM (inactive) | > 100 µM (inactive) | > 100 µM (inactive) | > 100 µM (inactive) | > 100 µM (inactive) | > 100 µM (inactive) | > 100 µM (inactive) | > 100 µM (inactive) | > 100 µM (inactive) | > 100 µM (inactive) | > 100 µM (inactive) | > 100 µM (inactive) | 
O=c1c2ccccc2[nH]c(=S)n1-c1ccc(/N=N/c2cccc3cc(O)ccc23)cc1 | > 100 µM (inactive) | > 100 µM (inactive) | > 100 µM (inactive) | > 100 µM (inactive) | 48.4 µM (inactive) | 36.3 | > 100 µM (inactive) | > 100 µM (inactive) | > 100 µM (inactive) | 44.5 µM (inactive) | > 100 µM (inactive) | > 100 µM (inactive) |  | > 100 µM (inactive) | > 100 µM (inactive) | > 100 µM (inactive) | > 100 µM (inactive) | 64.9 µM (inactive) | 31.8 µM (inactive) | 94.6 µM (inactive)
CC(C)C1=CC(=O)[C@@](C)(C2[C@H](O)C[C@@]3(C)[C@@H]4CC=C5[C@@H](CC[C@@H](OC6OCC(O)C(O)C6OC6OC(C)C(O)C(O)C6O)C5(C)C)[C@]4(C)C(=O)C[C@]23C)O1 (some centres undefined) |  | > 100 µM (inactive) | > 100 µM (inactive) | > 100 µM (inactive) | > 100 µM (inactive) | > 100 |  | > 100 µM (inactive) | > 100 µM (inactive) | > 100 µM (inactive) | > 100 µM (inactive) | > 100 µM (inactive) | > 100 µM (inactive) | > 100 µM (inactive) | > 100 µM (inactive) | > 100 µM (inactive) | > 100 µM (inactive) | > 100 µM (inactive) | > 100 µM (inactive) | 
CN(CCCNC(=O)c1n[nH]c2c1ccc1ccccc12)CCCNC(=O)c1n[nH]c2c1ccc1ccccc12 | 10.6 µM (inactive) | 16 µM (inactive) | 16.8 µM (inactive) | 14.7 µM (inactive) | 10.9 µM (inactive) | 17 | 11 µM (inactive) | > 100 µM (inactive) | 17.3 µM (inactive) | 2.69 µM (inactive) | 4.3 µM (inactive) | 2.62 µM (inactive) | 17.8 µM (inactive) | 13.4 µM (inactive) | 16.8 µM (inactive) | 19.3 µM (inactive) | 16.8 µM (inactive) | 16.5 µM (inactive) | 4.68 µM (inactive) | 
O=C1c2cccnc2-c2nccc3ccnc1c23 | 2.16 µM (inactive) | 0.622 µM (active) | 3.53 µM (inactive) | 1.11 µM (active) | 1.32 µM (inactive) | 0.366 | 1.5 µM (inactive) | 0.294 µM (active) | 1.91 µM (inactive) | 0.372 µM (active) | 1.02 µM (active) | 0.219 µM (active) | 5 µM (inactive) | 1.58 µM (inactive) | 0.116 µM (active) | 1.6 µM (inactive) | 0.163 µM (active) | 0.548 µM (active) | 0.61 µM (active) | 
